Laboratory results published in PubChem BioAssay (NCI).
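48-hour exposure; five concentrations; linearly interpolated endpoints. GI50: concentration for 50% inhibition of growth. TGI denotes the concentration required for complete inhibition of growth.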

Assays:
Assay in all cases: NCI-60 cell line screen, 48 h
NCI-H522 lung = test system: NCI-H522 lung
NCI/ADR-RES ovarian = test system: NCI/ADR-RES ovarian
MDA-MB-435 = test system: MDA-MB-435
IGROV1 ovarian = test system: IGROV1 ovarian
HCC-2998 colon = test system: HCC-2998 colon
T-47D breast = test system: T-47D breast
OVCAR-3 ovarian = test system: OVCAR-3 ovarian
PC-3 prostate = test system: PC-3 prostate
LOX IMVI melanoma = test system: LOX IMVI melanoma
OVCAR-5 ovarian = test system: OVCAR-5 ovarian
OVCAR-4 ovarian = test system: OVCAR-4 ovarian
SW-620 colon = test system: SW-620 colon
ACHN renal = test system: ACHN renal
A549 NSCLC = test system: A549 NSCLC
SNB-19 CNS = test system: SNB-19 CNS
CCRF-CEM leukemia = test system: CCRF-CEM leukemia
SNB-75 CNS = test system: SNB-75 CNS
TK-10 renal = test system: TK-10 renal
DU-145 prostate = test system: DU-145 prostate
UO-31 renal = test system: UO-31 renal
K-562 leukemia = test system: K-562 leukemia
786-0 renal = test system: 786-0 renal
HCT-15 colon = test system: HCT-15 colon
NCI-H23 lung = test system: NCI-H23 lung
SK-MEL-5 melanoma = test system: SK-MEL-5 melanoma
HOP-62 NSCLC = test system: HOP-62 NSCLC
HCT-116 colon = test system: HCT-116 colon

Cn1c(/C=C/[N+](=O)[O-])cc2ccccc21
TGI (NCI-H522 lung): 7.43 µM | GI50 (NCI/ADR-RES ovarian): 6.45 µM | TGI (NCI/ADR-RES ovarian): 92.5 µM | GI50 (MDA-MB-435): 1.69 µM | TGI (MDA-MB-435): 4.34 µM | GI50 (IGROV1 ovarian): 2.05 µM | TGI (IGROV1 ovarian): 5.44 µM | GI50 (HCC-2998 colon): 1.84 µM | TGI (HCC-2998 colon): 3.36 µM | GI50 (T-47D breast): 2.79 µM | TGI (T-47D breast): 8.61 µM | GI50 (OVCAR-3 ovarian): 1.66 µM | TGI (OVCAR-3 ovarian): 3.49 µM | GI50 (PC-3 prostate): 6.75 µM | TGI (PC-3 prostate): 35.5 µM | GI50 (LOX IMVI melanoma): 1.67 µM | TGI (LOX IMVI melanoma): 3.44 µM | GI50 (OVCAR-5 ovarian): 21.2 µM | TGI (OVCAR-5 ovarian): 56.6 µM | GI50 (OVCAR-4 ovarian): 10.3 µM | TGI (OVCAR-4 ovarian): 92.1 µM | GI50 (SW-620 colon): 1.67 µM | TGI (SW-620 colon): 3.22 µM | GI50 (ACHN renal): 3.42 µM | TGI (ACHN renal): 13.2 µM | GI50 (A549 NSCLC): 2.68 µM | TGI (A549 NSCLC): 7.83 µM | GI50 (SNB-19 CNS): 11.1 µM | TGI (SNB-19 CNS): 28.8 µM | GI50 (CCRF-CEM leukemia): 16.9 µM | TGI (CCRF-CEM leukemia): > 100 µM | GI50 (SNB-75 CNS): 3.36 µM | TGI (SNB-75 CNS): 28.4 µM | GI50 (TK-10 renal): 4.04 µM | TGI (TK-10 renal): 14.9 µM | GI50 (DU-145 prostate): 1.65 µM | TGI (DU-145 prostate): 3.21 µM | GI50 (UO-31 renal): 1.47 µM | TGI (UO-31 renal): 3.64 µM | GI50 (K-562 leukemia): 2.9 µM | TGI (K-562 leukemia): > 100 µM | GI50 (786-0 renal): 2.15 µM | TGI (786-0 renal): 4.08 µM | GI50 (HCT-15 colon): 3.24 µM | TGI (HCT-15 colon): 11.2 µM | GI50 (NCI-H23 lung): 2.73 µM | TGI (NCI-H23 lung): 17.1 µM | GI50 (SK-MEL-5 melanoma): 3.07 µM | TGI (SK-MEL-5 melanoma): 13.3 µM | GI50 (HOP-62 NSCLC): 8.39 µM | TGI (HOP-62 NSCLC): 27.6 µM | GI50 (HCT-116 colon): 1.04 µM | TGI (HCT-116 colon): 2.45 µM
